# PubChem BioAssay (NCI)
#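 At the GI50, growth is halved. At the TGI there is no net growth.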
# Tests used:
# Test in all cases: growth of human tumour cells (NCI), 384-well format
# 786-0 renal = test system: 786-0 renal
# A498 renal = test system: A498 renal
# A549 NSCLC = test system: A549 NSCLC
# ACHN renal = test system: ACHN renal
# BT-549 breast = test system: BT-549 breast
# CAKI-1 renal = test system: CAKI-1 renal
# CCRF-CEM leukemia = test system: CCRF-CEM leukemia
# COLO 205 colon = test system: COLO 205 colon
# DU-145 prostate = test system: DU-145 prostate
# HCC-2998 colon = test system: HCC-2998 colon
# HCT-116 colon = test system: HCT-116 colon
# HCT-15 colon = test system: HCT-15 colon
# HL-60(TB) leukemia = test system: HL-60(TB) leukemia
# HOP-62 NSCLC = test system: HOP-62 NSCLC
# HOP-92 NSCLC = test system: HOP-92 NSCLC
# HT29 colon = test system: HT29 colon
# IGROV1 ovarian = test system: IGROV1 ovarian
# K-562 leukemia = test system: K-562 leukemia
# KM12 colon = test system: KM12 colon
# LOX IMVI melanoma = test system: LOX IMVI melanoma
# M14 melanoma = test system: M14 melanoma
# MALME-3M melanoma = test system: MALME-3M melanoma
# MCF7 breast = test system: MCF7 breast
# MDA-MB-231 breast = test system: MDA-MB-231 breast
# MDA-MB-435 melanoma = test system: MDA-MB-435 melanoma
# MDA-MB-468 breast = test system: MDA-MB-468 breast
# MOLT-4 leukemia = test system: MOLT-4 leukemia
# NCI-H226 lung = test system: NCI-H226 lung
# NCI-H23 lung = test system: NCI-H23 lung
# NCI-H322M lung = test system: NCI-H322M lung
# NCI-H460 NSCLC = test system: NCI-H460 NSCLC
# NCI-H522 lung = test system: NCI-H522 lung
# NCI/ADR-RES ovarian = test system: NCI/ADR-RES ovarian
# OVCAR-3 ovarian = test system: OVCAR-3 ovarian
# OVCAR-4 ovarian = test system: OVCAR-4 ovarian
# OVCAR-5 ovarian = test system: OVCAR-5 ovarian
# OVCAR-8 ovarian = test system: OVCAR-8 ovarian
# PC-3 prostate = test system: PC-3 prostate
# RPMI-8226 leukemia = test system: RPMI-8226 leukemia
# RXF 393 renal = test system: RXF 393 renal
# SF-268 CNS = test system: SF-268 CNS
# SF-295 CNS = test system: SF-295 CNS
# SF-539 CNS = test system: SF-539 CNS
# SK-MEL-2 melanoma = test system: SK-MEL-2 melanoma
# SK-MEL-28 melanoma = test system: SK-MEL-28 melanoma
# SK-MEL-5 melanoma = test system: SK-MEL-5 melanoma
# SK-OV-3 ovarian = test system: SK-OV-3 ovarian
# SN12C renal = test system: SN12C renal
# SNB-19 CNS = test system: SNB-19 CNS
# SR leukemia = test system: SR leukemia
# SW-620 colon = test system: SW-620 colon
# T-47D breast = test system: T-47D breast
# TK-10 renal = test system: TK-10 renal
# U251 glioblastoma = test system: U251 glioblastoma
# UACC-257 melanoma = test system: UACC-257 melanoma
# UACC-62 melanoma = test system: UACC-62 melanoma
compound,measurement,setting,value
Cc1c(CN2CCC(Nc3ncnc4sc(CC(F)(F)F)cc34)CC2)ccc2c1cc(C#N)n2Cc1cn[nH]c1,GI50,786-0 renal,1.16 µM
same,TGI,786-0 renal,2.39 µM
same,GI50,A498 renal,1.15 µM
same,TGI,A498 renal,2.37 µM
same,GI50,A549 NSCLC,1.35 µM
same,TGI,A549 NSCLC,2.67 µM
same,GI50,ACHN renal,1.39 µM
same,TGI,ACHN renal,2.69 µM
same,GI50,BT-549 breast,0.901 µM
same,TGI,BT-549 breast,2.12 µM
same,GI50,CAKI-1 renal,1.42 µM
same,TGI,CAKI-1 renal,2.73 µM
same,GI50,CCRF-CEM leukemia,0.668 µM
same,TGI,CCRF-CEM leukemia,1.96 µM
same,GI50,COLO 205 colon,1.42 µM
same,TGI,COLO 205 colon,2.74 µM
same,GI50,DU-145 prostate,1.7 µM
same,TGI,DU-145 prostate,3.09 µM
same,GI50,HCC-2998 colon,0.391 µM
same,TGI,HCC-2998 colon,1.35 µM
same,GI50,HCT-116 colon,0.417 µM
same,TGI,HCT-116 colon,1.61 µM
same,GI50,HCT-15 colon,1.23 µM
same,TGI,HCT-15 colon,2.49 µM
same,GI50,HL-60(TB) leukemia,0.627 µM
same,TGI,HL-60(TB) leukemia,1.68 µM
same,GI50,HOP-62 NSCLC,1.16 µM
same,TGI,HOP-62 NSCLC,2.39 µM
same,GI50,HOP-92 NSCLC,1.33 µM
same,TGI,HOP-92 NSCLC,2.61 µM
same,GI50,HT29 colon,0.318 µM
same,TGI,HT29 colon,1.27 µM
same,GI50,IGROV1 ovarian,1.35 µM
same,TGI,IGROV1 ovarian,3.4 µM
same,GI50,K-562 leukemia,0.295 µM
same,TGI,K-562 leukemia,1.11 µM
same,GI50,KM12 colon,1.28 µM
same,TGI,KM12 colon,2.56 µM
same,GI50,LOX IMVI melanoma,2.06 µM
same,TGI,LOX IMVI melanoma,3.49 µM
same,GI50,M14 melanoma,1.62 µM
same,TGI,M14 melanoma,2.98 µM
same,GI50,MALME-3M melanoma,1.36 µM
same,TGI,MALME-3M melanoma,2.65 µM
same,GI50,MCF7 breast,1.02 µM
same,TGI,MCF7 breast,2.19 µM
same,GI50,MDA-MB-231 breast,1.36 µM
same,TGI,MDA-MB-231 breast,2.65 µM
same,GI50,MDA-MB-435 melanoma,1.86 µM
same,TGI,MDA-MB-435 melanoma,3.27 µM
same,GI50,MDA-MB-468 breast,0.327 µM
same,TGI,MDA-MB-468 breast,1.13 µM
same,GI50,MOLT-4 leukemia,0.486 µM
same,TGI,MOLT-4 leukemia,1.69 µM
same,GI50,NCI-H226 lung,1.3 µM
same,TGI,NCI-H226 lung,2.61 µM
same,GI50,NCI-H23 lung,0.275 µM
same,TGI,NCI-H23 lung,1.42 µM
same,GI50,NCI-H322M lung,0.954 µM
same,TGI,NCI-H322M lung,2.15 µM
same,GI50,NCI-H460 NSCLC,0.409 µM
same,TGI,NCI-H460 NSCLC,1.63 µM
same,GI50,NCI-H522 lung,1.39 µM
same,TGI,NCI-H522 lung,2.68 µM
same,GI50,NCI/ADR-RES ovarian,1.58 µM
same,TGI,NCI/ADR-RES ovarian,2.94 µM
same,GI50,OVCAR-3 ovarian,1.23 µM
same,TGI,OVCAR-3 ovarian,2.48 µM
same,GI50,OVCAR-4 ovarian,0.93 µM
same,TGI,OVCAR-4 ovarian,2.14 µM
same,GI50,OVCAR-5 ovarian,1.73 µM
same,TGI,OVCAR-5 ovarian,3.12 µM
same,GI50,OVCAR-8 ovarian,1.5 µM
same,TGI,OVCAR-8 ovarian,2.84 µM
same,GI50,PC-3 prostate,1.3 µM
same,TGI,PC-3 prostate,2.58 µM
same,GI50,RPMI-8226 leukemia,0.107 µM
same,TGI,RPMI-8226 leukemia,0.77 µM
same,GI50,RXF 393 renal,0.219 µM
same,TGI,RXF 393 renal,0.709 µM
same,GI50,SF-268 CNS,1.31 µM
same,TGI,SF-268 CNS,2.59 µM
same,GI50,SF-295 CNS,1.42 µM
same,TGI,SF-295 CNS,2.73 µM
same,GI50,SF-539 CNS,1.33 µM
same,TGI,SF-539 CNS,2.62 µM
same,GI50,SK-MEL-2 melanoma,1.33 µM
same,TGI,SK-MEL-2 melanoma,2.6 µM
same,GI50,SK-MEL-28 melanoma,1.85 µM
same,TGI,SK-MEL-28 melanoma,3.26 µM
same,GI50,SK-MEL-5 melanoma,0.402 µM
same,TGI,SK-MEL-5 melanoma,1.54 µM
same,GI50,SK-OV-3 ovarian,1.33 µM
same,TGI,SK-OV-3 ovarian,2.61 µM
same,GI50,SN12C renal,1.3 µM
same,TGI,SN12C renal,2.58 µM
same,GI50,SNB-19 CNS,1.67 µM
same,TGI,SNB-19 CNS,3.04 µM
same,GI50,SR leukemia,0.137 µM
same,TGI,SR leukemia,0.279 µM
same,GI50,SW-620 colon,1.31 µM
same,TGI,SW-620 colon,2.6 µM
same,GI50,T-47D breast,0.247 µM
same,TGI,T-47D breast,1.44 µM
same,GI50,TK-10 renal,1.33 µM
same,TGI,TK-10 renal,2.62 µM
same,GI50,U251 glioblastoma,0.73 µM
same,TGI,U251 glioblastoma,2 µM
same,GI50,UACC-257 melanoma,0.772 µM
same,TGI,UACC-257 melanoma,2.06 µM
same,GI50,UACC-62 melanoma,1.65 µM
same,TGI,UACC-62 melanoma,3.02 µM
